How the values were obtained:
[1] = Cell viability (MTS) after treatment with bis-compound; assay type: cell-based; conditions: human, pha-activated pbmc, 5 μg/ml
Experimental: Human peripheral blood monocytes (PBMC) were obtained from commercial sources as a leukophoresis from a healthy volunteer and were purified by centrifugation on a Ficoll-Hypaque (Pharmacia) gradient (1700 rpm for 20 min). The "buffy" coat containing the PBMC was diluted with serum-free culture medium (SF-RPMI) to a volume of 50 ml and collected by centrifugation at 1500 rpm for 5 min. Cells were resuspended in cell culture medium containing 10% fetal bovine serum (RPMI-10) and phytohemaglutinin (PHA - 10 μg/ml) at a density of 5×10^6 cells/ml and were cultured for 3 days at 37° C. in a humidified CO2 incubator. The PHA-activated cells were collected by centrifugation, washed three times with an equal volume of SF-RPMI and resuspended in fresh RPMI-10 (1×10^6 cells /ml). Aliquots (100 μl) were dispensed into the wells of multiple 96-well plates to give a final cell number of 10^5 per well. Test compounds, dissolved in dimethyl sulfoxide (DMSO) at 1 mg/ml, were first diluted in culture medium to an intermediate concentration of 20 μg/ml and then were added (50 μwell) to a specific well of the plate for each compound. Stimulation medium (50 μl/well) containing 10% serum, IL-2 and IL-12 was added to final concentrations of 25 U/ml and 0.5 ng/ml, respectively. Control wells receive no IL-2 or IL-12 (negative control) or received both interleukins but no test compound (positive control). The plates were incubated for 48 hr at 37° C. in a CO2 incubator at which time aliquots (20 μl) were removed for analysis of IFN-γ concentration by ELISA. A quantitative ELISA was developed by coating 96-well plates with an mouse monoclonal antibody against human IFN-γ, 1 μg/ml in phosphate buffered saline (PBS) (Pestka Biological Laboratories), overnight at 4° C. Unbound antibody was washed off by washing three times with PBS. Non-specific antibody binding was blocked with a solution of 1% bovine serum albumin (BSA) and 1% goat serum in PBS (150 μl/well) which was incubated for 2 hr at 37° C. After washing the blocked plates four times with PBS, test samples and dilutions of the IFN-γ standard are added in a final volume of 100 μl/well. Following an overnight incubation at 4° C., the plates are washed four times with PBS, and a polyclonal rabbit antiserum against human IFN-γ (1/10000 dilution--Petska Biological Laboratories) is added. After an additional incubation for 1 hr at 37° C. and four washes with PBS, a polyclonal donkey anti-rabbit detecting antibody, conjugated to horseradish peroxidase (1/700 dilution--Petska Biological Laboratories) is added for 1 hr at 37° C. The plates are then washed four times with PBS and 100 μl of K-blue substrate E(ILISA Technologies, Neogen Corp.) is added until the color in the wells containing the standard curve is sufficiently developed, at which time 100 μl of "Red-stop" solution (ELISA Technologies) is added. The absorbance of the solution within each well of the plate is then read at 650 nm using an ELISA plate reader (Dynatech MR7000). The amount of IFN-γ is calculated by comparing the optical density of the test sample with a standard curve derived from the dilutions of the control IFN-y. […] MTS is a chemical chromophore that is metabolized in the mitochondria of viable cells to produce a color which increases in intensity in proportion to the numbers of viable cells. The absorbance of the cell culture can be compared to control cultures in order to determine the percent viability.

[2] = system: T cell response of human PBMC to allogenic stimulation by Namalwa cells; experiment: Mixed Lymphocyte Reaction (proliferation and IFN-γ secretion); assay type: cell-based; conditions: 6 days; FIGS. 1-3
Experimental: This reaction measures the T cell response to allogenic stimulation by a mismatch of class II histocompatability antigens. This is triggered through the T cell receptor and activates the T cell to secrete and proliferate in response to endogenous IL-2. IFN-γ is also made in response to this stimulation and accumulates in the culture medium. Compounds are tested for their ability to block the proliferation and response to antigenic stimulation as well as their ability to produce IFN-γ as follows. A human B cell ine expressing class II antigen, Namalwa (American Type Culture Collection), is incubated for 2 hr at 37° C. in RPMI-10 containing mitomycin C (50 μg/ml). These cells are washed four times by centrifugation and resuspension (10^6 cells/ml) in SF-RPMI medium and are added to the wells of 96-well plate (50 μl/well) as stimulators. Mitomycin treatment prevents these cells from proliferating in the assay. Fresh PBMC are prepared as described above in example 1, but are not activated with PHA. Instead they are resuspended at 10^6 cells/ml and 100 μl is added per well. Dilutions of test compounds are added (50 μl/well) to give a final volume of 200 μl and the plates are incubated for 6 days at 37° C. During the last 18 hr, ^3 H-thymidine (DuPont-NEN- 1 μCi/well) is added as a measure of cell proliferation, cultures are collected using a cell harvester (Packard), and scintillation fluid is added prior to counting in a Packard Top Count scintillation counter. A sample of medium is also collected for measurement of IFN-γ production prior to the addition of ^3 H-thymidine for use as a negative control.

For `CCCCCCCC(c1cc(C)cc(C)c1O)c1cc(C)cc(C)c1O` [Compound 51852], the viability [1] was 105% and the “inhibition of IFN-γ secretion versus cell proliferation (in words)” value [2] was “more potent inhibitors of secretion at concentrations that do not effect cell proliferation”.
In the case of `Cc1cc(C)c(O)c(C(CC(C)CC(C)(C)C)c2cc(C)cc(C)c2O)c1` (stereo not shown) [Compound 51853, bis-1,1-[2-hydroxy-3,5-dimethylphenyl]-3,5,5-dimethyl hexan], the viability [1] is reported as 104% and the “inhibition of IFN-γ secretion versus cell proliferation (in words)” value [2] is reported as “more potent inhibitors of secretion at concentrations that do not effect cell proliferation”.
